Laboratory results taken from patent publication US20210386828A1, “METHODS FOR ENHANCING CANCER IMMUNOTHERAPY” (The Regents of the University of California, priority 2018, published 2021).

Experiments:
[1] = test system: bone marrow (BM)-derived macrophages; assay: Bone marrow derived macrophages, qRT-PCR and flow cytometry; assay type: cell-based, mouse
[2] = test system: Ifngr2, Tap1 and Psmb8 promoters; assay: ChIP analysis of promoters
[3] = test system: TRC2 cells expressing ovalbumin variants; conditions: Oxali-treated TRC2-N4 cells with OT-I CD8+ T cells
Description: FIGS. 2J-2L show TRC2 cells stable transfected with vectors expressing high, medium, and low affinity variants of Ovalbumin were incubated with 4 μM Oxali and/or CFSE-labeled OT-I cells for 72 hr and analyzed by flow cytometry using an antibody that recognizes [sequence] (SEQ ID NO: 24) bound to H-2Kb (FIG. 2J). The number of OT-I cells in each culture (FIG. 2K) and percentage of vital TRC2 cells (FIG. 2L) were determined by flow cytometry.

[4] = Cell death in vitro at the low Oxali dose; assay type: cell-based; conditions: Oxali dose used in the experiments (low dose)
Excerpt: Thus, for purposed of this disclosure, the term “low dose” may include a non-ICD amount of a cytostatic agent or a platinoid.
In the past, Oxali was studied as a prototype of anticancer drugs that are capable of inducing immunogenic cell death (ICD) and T-cell priming (Galluzzi et al., 2015). However, the exact mechanism of ICD induction is poorly defined, and it is not clear whether Oxali and similar drugs exert their immunogenic activity solely via ICD. Other studies have reported Oxali and several other platinoids to function as inducers of the integrated stress response (ISR) (Bruno et al., 2017; Kepp et al., 2015). Nevertheless, the mechanism of ISR activation by platinoids and its relevance for their immunostimulatory activity is unknown. […] Oxali treatment also results in induction of Interferon gamma receptor 2 (IFNγR2), through NF-κB signaling, which potentiates the response of MHC-I-expressing cancer cells to IFNγ produced by CD8^+ T cells that have been reinvigorated by ICI administration.

[5] = test system: Myc-CaP cells; assay: Stress, DNA damage and type I IFN responses (IB, qRT-PCR)
Description: CRISPR-Cas9 was used to ablate cyclic GMP-AMP synthase (cGAS, encoded by Mb21d1) and Ifnar2 (FIG. 11K).

[6] = test system: Myc-CaP and TRAMP-C2 cells; assay: RNA-seq of mouse PCa cells incubated with platinoids; assay type: cell-based
Description: FIGS. 1E-1G show total RNA from Myc-CaP cells incubated with indicated agents for 24 hr was subjected to RNA-seq. Top 20 hallmark gene sets were sorted by normalized enrichment score (NES). Immune-related gene sets are in blue (IFNγ signaling in light blue).
The top 20 hallmark gene sets sorted by normalized enrichment score (NES) are shown to depict the Oxali- and Cis-induced responses determined by GSEA analysis. Immune-related gene sets are colored blue (IFNγ signaling in light blue). […] Immune-related gene sets are in blue (IFNγ signaling in light blue).
To investigate how low-dose Oxali affects the PCa transcriptome, RNA sequencing (RNA-seq) was conducted on mouse PCa cells (Myc-CaP and TRAMP-C2) incubated with 2 μM of either Oxali or Cisplatin (Cis), a platinoid that, unlike Oxali, minimally enhances the response to PD-L1 blockade or ISP ablation (Pfirschke et al., 2016; Shalapour et al., 2015).

[7] = test system: Myc-CaP cells; assay: Nuclear abundance of transcription factors (IB, flow cytometry); assay type: cell-based, mouse; conditions: 2 μM Oxali
[8] = test system: Myc-CaP cells; assay: qRT-PCR of MHC-I component mRNAs in Myc-CaP cells; assay type: cell-based, mouse
Excerpt: (§1) Each dot represents an experiment and horizontal lines denote the median.

[9] = test system: PC3, WM793, MIA PaCa-2, NSCLC and melanoma cell lines
Description: The stained cells were examined by indirect immunofluorescence. […] Surface HLA-ABC expression was determined by flow cytometry.

[10] = test system: HDACs; assay: HDAC enzyme activity in extracts of treated cells; conditions: after 6 hours
[11] = test system: histone acetyltransferase (HAT); assay: HAT activity in lysates of treated cells
[12] = test system: Myc-CaP cells; assay: Surface MHC (H-2Kq) expression by flow cytometry; assay type: cell-based, mouse; conditions: for surface expression of H-2Kq: agent as named
Excerpt: as §1

[13] = test system: s.c. Myc-CaP, B16 or YUMM1.7 tumors; assay: Growth of subcutaneous tumors in mice under weekly Oxali and/or anti-PD-L1; assay type: in vivo, mouse
Description: (§2) FIGS. 7A-7G are pictorial and graphical diagrams showing that IFNγR2 induction is needed for the Oxali-potentiated response to anti-PDL1 therapy. […] After four treatment cycles, during which tumor size was measured, the mice were euthanized and analyzed. Significance was determined by Mann-Whitney and t-tests. Transient Cas9 expression was used to avoid any immune response to Cas9-molecules.
FIGS. 14A-14J are graphical diagrams showing that IFNγR2 expression is needed for platinoid-enhanced anti-PD-L1 responsiveness. […] After three cycles, the mice were euthanized, and tumor volume was determined. Significance was determined by t-tests (n=3). […] Tumor volume was determined using caliper. After three treatment cycles, the mice were euthanized and analyzed. Significance was determined by t-tests. Dots show averages and the brackets indicate±SEM (n=3). […] Each dot represents a mouse and each horizontal line indicates mean±SEM. […] Transient Cas9 expression was used to avoid any immune response to Cas9. Tumor growth was monitored using a caliper and analyzed using t-test. Each dot represents average and the brackets are SEM (n=3-5). […] Each dot represents a mouse and each horizontal line indicates the median.
The synergistic inhibition of Myc-CaP tumor growth by Oxali+anti-PD-L1 was attenuated by IFNγR2 ablation (FIGS. 7A and 14E). […]

[14] = test system: Myc-CaP cells; assay: Immunoblot of IRF1 and phosphorylated STAT1; assay type: cell-based, mouse; conditions: for IRF1 expression: Oxali at 2 μM
Excerpt: Protein loading was confirmed with tubulin antibodies.
The basis for the synergy between low-dose Oxali and IFNγ was investigated. […] Given the ability of Oxali to induce Ifngr2 mRNA expression, not only in Myc-CaP cells (FIG. 2D) but also in mouse and human melanoma cell lines (FIGS. 11C and 11D), it was postulated that the synergistic activation of IRF1 and STAT1 by Oxali plus IFNγ may be due to IFNγR2 induction.

[15] = test system: LMP7 (PSMB8); assay: Lysate LMP7 (PSMB8) immunoproteasome activity with specific fluorogenic peptide substrate; assay type: cell-based, mouse; conditions: low-dose
Description: Lysate LMP7 (PSMB8) immunoproteasome activity was measured using LMP7 (PSMB8) specific fluorogenic peptide substrate. […] Each dot is a single experiment and horizontal lines are the medians.

[16] = test system: s.c. Myc-CaP tumors; assay: qRT-PCR of total tumor RNA from treated mice; assay type: in vivo, mouse; conditions: low-dose
Description: as §2
The synergistic inhibition of Myc-CaP tumor growth by Oxali+anti-PD-L1 was attenuated by IFNγR2 ablation (FIGS. 7A and 14E). […] Importantly, Psmb9, Tap1, and Nlrc5 induction by Oxali+anti-PD-L1 was almost completely abolished after IFNγR2 ablation in Myc-CaP cells (FIGS. 7C and 14F). Oxali+anti-PD-L1 induced MHC-I (H-2Kq and H-2Dd) surface expression by tumor cells, which was also abolished by IFNγR2 ablation (FIG. 7D). Oxali+anti-PD-L1 had no effect on surface MHC-I (H-2Kq) or PD-L1 expression by tumor-infiltrating CD11b^+ myeloid cells in vivo (FIGS. 14G and 14H). […] Thus, Oxali-induced upregulation of MHC-I genes in malignant cells is important for the final recognition and killing stage of the cancer-immunity cycle (Chen and Mellman, 2013) but has no role in ICI-induced CTL reinvigoration.

[17] = test system: p300/CBP; assay: p300 immunoblot and imaging; assay type: cell-based, mouse
[18] = test system: Myc-CaP cells; assay: ATAC-seq of chromatin accessibility; assay type: cell-based, mouse; conditions: for accessibility of transcription factor binding sites at the Nfkb1 locus: 2 μM Oxali, 1 ng/mL IFNγ
Excerpt: FIGS. 4A-4D are pictorial and graphical diagrams showing low dose Oxali alters chromatin accessibility of MHC-I related genes. […] The Venn diagram compares gene expression between untreated and differently treated cells (left). The heat map depicts differentially expressed genes involved in the indicated pathways (right). […] The Venn diagram presents the number of binding site changes and overlaps after each treatment (left). FIGS. 4C-4D show detailed ATAC seq analyses of the Nfkb1 gene (FIG. 4C) and a mouse Chr17 gene cluster containing Psmb8, Psmb9, Tap1 and Tap2 (FIG. 4D). Changes in transcription factor (TF) binding site accessibility are compared to RNA seq results. The affected TF binding sites are depicted below each panel.
FIGS. 12A-12C are pictorial and graphical diagrams showing that low dose Oxali enhances chromatin accessibility of MHC-I related genes.
To better understand the transcriptional mechanisms underlying the response to Oxali, RNA-seq and ATAC-seq analyses were conducted on Myc-CaP cells that were incubated with either 2 μM Oxali, 1 ng/mL IFNγ, or a combination of the two. By coupling ATAC-seq, a method for assessing transcription factor binding site accessibility (Buenrostro et al., 2015), with RNA-seq, transcription factor loading can be correlated with actual transcriptional changes.
Of note, the NF-κB pathway, represented by the Nfkb1 gene, was stimulated by Oxali but not IFNγ. […] To examine activation of the antigen processing and presentation pathway, a gene cluster on mouse chromosome 17 harboring Psmb9, Tap1, Psmb8, and Tap2 was analyzed. […] However, IFNγ further enhanced transcription factor accessibility in Oxali-treated cells (FIG. 4D), an effect that was consistent with the transcriptomic analysis (FIG. 4A). […] Similarly, the Erap1 locus, which is induced by both Oxali and IFNγ, was made more accessible by Oxali relative to IFNγ treatment (FIG. 12C). […] The addition of IFNγ expanded this response to include E2F6, JUNB, HIF-lb, KLF3, and DMRT6 binding sites. Of note, the chromosome 17 MHC-I region opened by Oxali contained recognition sites for BORIS and CTCF, two general transcription factors responsible for chromatin opening (Li et al., 2012).

[19] = test system: Myc-CaP and TRC2 cells; assay: Immunoblot of immunoproteasome subunits PSMB8 and PSMB9; conditions: low-dose
[20] = test system: MC-38 cells; assay: Mass spectrometry peptidomic profiling of H-2Kb and H-2Db bound peptides; assay type: cell-based, mouse; conditions: H-2Db experiment
Description: Tubulin was used as loading control.
To confirm the ability of Oxali to potentiate antigen presentation, mass spectrometry-based peptidomic profiling of H-2Kb and H-2Db molecules isolated from MC-38 cells was conducted.

## O=C1[O][Pt]2([NH][C@@H]3CCCC[C@H]3[NH]2)[O]C1=O [Oxali, oxaliplatin]
[1]
  MHC-I machinery component expression: upregulated
[1]; Oxali alone
  MHC-II surface expression: did not respond to Oxali alone
[1]; plus IFNγ
  MHC-II expression in macrophages co-stimulated with IFNγ: potentiated MHC-II expression
[2]
  H3 acetylation (Lysine 14 and 27) of Psmb8 promotor region: increased H3 acetylation
[3]
  OT-I T-cell activation and tumor cell killing: led to T-cell activation, resulting in tumor cell killing
[4]
  cell death in vitro: 10-15%
[5]
  eIF2α phosphorylation and CHOP expression: induced
  γH2AX, marker of DNA damage: γH2AX induction
[5]; 48 hr
  Ifna, Ifnb and IL1b expression: increased
[6]; 2 μM, Myc-CaP
  induction of gene set responsive to NF-κB-dependent TNF signaling: strongly induced
[6]; 2 μM, compared with Cis
  induction of IFNγ responsive gene set: considerably stronger induction
[6]; low-dose, Myc-CaP
  induction of genes of the MHC-I antigen processing and presentation machinery: strongly induced
[7]
  nuclear abundance of p65, NF-κB, CREB1, ATF3, P-ATM and JunB: persistent increases
[8]; 2 μM (Oxali and Cis) or 4 μM (Carbo), among the three platinoids
  induction of Nlrc5, Psmb9, Tap1, Ifngr2, Tapasin, and Erap1 mRNAs: most efficient induction
[8]; Myc-CaP cells
  Ifngr2 gene expression: induced
[8]; plus IFNγ
  effect of exogenous IFNγ on induction of MHC-I antigen presentation and processing genes by the platinoid: strongly potentiated by exogenous IFNγ
[9]; MIA PaCa-2 cells
  HLA-ABC surface expression: induced HLA-ABC surface expression
[9]; panel of human melanoma cell lines
  Psmb9 and Ifngr2 induction, BRAF (V600E) versus activated NRAS melanoma cells: much more responsive
[10]
  effect on HDACs in cytoplasm: inhibitory effect
[11]; after 3 hr of Oxali addition
  increase in nuclear HAT activity: 4 fold
[11]; within 3 hr
  HAT enzymatic activity: increased
[12]
  surface expression of H-2Kq: induced surface expression of H-2Kq
[13]; Myc-CaP, B16, or YUMM1.7, weekly treatment
  subcutaneous (s.c.) tumor growth: little effect
[13]; low-dose Oxali alone, mouse models of PCa
  tumor regression in vivo: did not cause tumor regression in vivo
[14]
  IRF1 expression: induced
[14]; added to IFNγ
  effect on IRF1 induction by IFNγ: strongly potentiated
[14]; added to IFNγ-treated cells
  STAT1 phosphorylation: dramatically increased
[15]
  immunoproteasome activity, hydrolysis of LMP7 (PSMB8)-specific substrate: stimulated
[16]
  expression of Ifngr2, Psmb9, Tap1, and Nlrc5 mRNAs in tumors: enhanced expression
[17]; Myc-CaP cells
  nuclear amount of p300 and acetylated p300/CBP: enhanced the nuclear expression and acetylation of p300/CBP
[18]
  transcription factor accessibility of chromosome 17 cluster Psmb9, Tap1, Psmb8, Tap2: increased transcription factor accessibility
  accessibility of transcription factor binding sites at the Nfkb1 locus: increased accessibility
[19]
  PSMB8 and PSMB9 protein expression: induced

## Cc1[nH]c2ccccc2c1CCNCc1ccc(/C=C/C(=O)NO)cc1 [Panabinostat]
[8]; HDAC inhibitor
  transcriptional response (MHC-I gene induction) compared with low dose Oxali: nearly the same transcriptional response as low dose Oxali
[8]; dose that did not induce cell death
  Tap1, Nlrc5, Tapasin, Lmp2, and Ifngr2 mRNAs: induced
[12]; Panabinostat plus low dose Oxali
  surface H-2Kq expression on addition of low dose Oxali: potentiated
[12]
  surface expression of H-2Kq: induced

## IFNγ: exogenous interferon gamma
[5]
  eIF2α phosphorylation and CHOP expression: no effect
[8]; IFNγ at 200 pg/mL, Myc-CaP and other cell lines
  effect on MHC-I genes compared with low-dose Oxali: weaker than the effect of low-dose (2 μM) Oxali
[8]; IFNγ on its own, any of the analyzed cell lines
  Ifngr2 mRNA: did not induce
[20]
  amounts of H-2Db MHC-I-bound peptides: higher amounts of MHC-I-bound peptides than Oxali treated cells
[14]
  IRF1 expression: weak IRF1 induction
[17]; high resolution imaging
  nuclear foci / nucleolar localization of p300: not
[18]
  transcription factor accessibility of chromosome 17 cluster Psmb9, Tap1, Psmb8, Tap2: barely affected
  accessibility of transcription factor binding sites at the Nfkb1 locus: barely had any effect
